# Experimental data from US8697379B2, “Lysosomotropic inhibitors of acid ceramidase” (MUSC Foundation for Research Development, priority 2008, dated 2014).
# “And” between values parts separate entries of the source, which are not always exact repeats. Equal entries are not always repeated. Where two headings read alike, the source gives them in different places.
# Tests used:
# L929 cells = assay: TNF-α induced PGE2 release from L929 mouse fibroblast cells; assay type: cell-based; details: TNF-α treated L929 mouse fibroblast cells; preliminary data
# lysosomes [1] = details: previously studied non-Class E inhibitor; Bielawska et al. 2008; cited from earlier work
# acid ceramidase (ACDase) [2] = target: T1, acid ceramidase (ACDase) (Homo sapiens, UniProt Q13510); assay: Cellular activity of ACDase: MCF-7 cells treated with drug, then lysed and assayed; assay type: cell-based; design: C16-Cer as a substrate and MCF-7 cell lysate as an enzymatic source; endogenous in cells; host or cells: MCF-7 cell lysate; details: 10 μM, 2 h of treatment
# T1 sequence (Q13510 22-142 limits assumed): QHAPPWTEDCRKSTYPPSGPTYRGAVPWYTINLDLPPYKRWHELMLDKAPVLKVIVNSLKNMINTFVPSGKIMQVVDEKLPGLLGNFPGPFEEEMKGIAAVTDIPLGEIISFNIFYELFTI
# T1 sequence (Q13510 143-395 limits assumed): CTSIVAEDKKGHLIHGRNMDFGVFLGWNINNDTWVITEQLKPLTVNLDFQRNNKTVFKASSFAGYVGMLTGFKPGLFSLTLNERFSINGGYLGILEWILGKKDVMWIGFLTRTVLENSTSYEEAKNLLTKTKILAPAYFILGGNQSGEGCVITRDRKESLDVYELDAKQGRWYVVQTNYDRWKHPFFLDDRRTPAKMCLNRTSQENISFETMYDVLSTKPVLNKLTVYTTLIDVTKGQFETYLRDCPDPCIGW
# Description: (§1) Effects of the inhibitors on the cellular activity of ACDase were determined using cell lysate from the cultured cells previously treated with increasing concentrations of drugs. For this type of assay, the drugs are allowed to enter the cell for a specific time, then cell lysates were prepared by homogenization and assays performed as described above. Effects on endogenous Cers and Sph were determined using LC-MS/MS analysis as previously described. See Bielawska et al., Bioorg. Med. Chem., 16, 1032-1045 (2008); and Bielawska et al., Methods, 39, 82-91 (2006). Final results were expressed as the level of the particular sphingolipid (SPL)/phospholipids (Pi) determined from the Bligh and Dyer lipid extract and expressed as SPLs/Pi (pmol/nmol).
# [3] = test system: MCF-7 breast carcinoma cells; assay: MTT cell viability assay in MCF-7 breast carcinoma cells; assay type: cell-based, human
# Description: Class E compounds were administrated to cells capable of undergoing differentiation in amounts effective to induce differentiation of several cancer cell lines: MCF-7, PPC1, SCC14a, A549, and J3DR4. Cell viability assay was performed by the 3-(4,5-Dimethylthiazol-2-yl)-2,5-diphenyltetrazolium bromide (MTT) assay. Cells were seeded into 96-well plate overnight before treatment with increasing drug concentrations (0-100 μM) as previously described. See Hansen et al., J. Immunol. Methods, 119, 203-210 (1989). After treatment, plates were incubated for an additional period of time (24-72 h). Changes in cell numbers were determined and expressed as a percentage of the untreated controls.
# Class E prodrugs were administrated to MCF-7 cells capable of undergoing differentiation in amounts effective to induce differentiation. Cell viability assay was performed by the MTT assay. Cells were seeded into 96-well plate overnight before treatment with increasing drug concentrations (0-100 μM) as previously described. See Hansen et al., J. Immunol. Methods, 119, 203-210 (1989). After treatment, plates were incubated for an additional period of time (24-72 h). Changes in cell numbers were determined and expressed as a percentage of the untreated controls. 50% inhibitory concentrations were determined by comparing cell number changes in prodrug treated samples to control samples.
# [4] = test system: cellular sphingolipids (Cn-Cer, Sph, S1P) in MCF-7 cells; assay: Endogenous ceramide, Sph and S1P levels in MCF-7 cells by LC-MS/MS; assay type: cell-based, human
# Description: as §1
# Caspase 3/7 = assay: Apo-ONE Homogeneous Caspase 3/7 assay in MCF-7 cells; assay type: cell-based, human; details: 24 h incubation
# Description: The apoptotic effect of LCL464 was also investigated in MCF-7 cells via its effect on Caspase 3/7, a group of cysteine proteases that mediate execution. This can be activated by apoptotic signals from both death receptor and intracellular/mitochondrial pathways. Briefly, MCF-7 cells were seeded at a density of 5×10^3/50 μL/well overnight in 96 well plates. Then cells were treated with vehicle or diluted LCL464. After 8 and 24 hours incubation, Caspase 3/7 activities were measured using the Apo-ONE Homogeneous Caspase 3/7 Assay Kit according to the manufacturer's instructions (Promega, Madison, Wis., United States of America). LCL464 causes a dose dependent induction of apoptosis following 24 h incubation, causing increase of Caspase 3/7 activities to 140% and 200% for 10 μM and 20 μM, respectively.
# lysosomes [5] = assay: Lysosomal stability by FACS analysis with LYSOTRACKER red; assay type: cell-based; details: for lysosomal stability: 30 μM
# Description: Effects of Class E inhibitors on ACDase protein degradation were determined by Western blotting as previously described. See Bielawska et al., Bioorg. Med. Chem., 16, 1032-1045 (2008); Liu et al., Front. Biosci., 13, 2293-2298 (2008); and Holman et al., Cancer Chemother. Pharmacol., 61, 231-242 (2008). Lysosomal stability and mitochondrial stability were determined by FACS analysis using LYSOTRACKER™ red (Molecular Probes, Eugene, Oreg., United States of America) or JC-1 mitochondrial dye (Molecular Probes, Eugene, Oreg., United States of America) as previously described. See Holman et al., Cancer. Chemother. Pharmacol., 61, 231-242 (2008).
# acid ceramidase (ACDase) [6] = target: T1, acid ceramidase (ACDase); assay: In vitro ACDase activity assay, release of radioactive palmitic acid from [3H]C16-Cer in MCF-7 cell lysate; assay type: biochemical; design: C16-Cer as a substrate and MCF-7 cell lysate as an enzymatic source; endogenous in cells; host or cells: MCF-7 cell lysate
# Description: The in vitro assay was carried out according to a previously described procedure (see Zeidan et al., J. Biol. Chem., 281, 24695-24703 (2006)) using [^3H] C16-Cer as a substrate and MCF-7 cell lysate as an enzymatic source. Briefly, cell lysate was prepared under acidic conditions (i.e., pH 4.5, 50 mM sodium acetate, 5 mM magnesium chloride, 1 mM EDTA and 0.5% Triton X-100), and protein level was determined using BCA protein assay kit (Pierce, Rockford, Ill., United States of America). ACDase activity was determined based on the amount of the released radioactive palmitic acid counted by LS 6500 multi-purpose scintillation counter (Beckman Coulter, Inc., Fullerton, Calif., United States of America). The results are presented as percentage of control.
# [7] = Breakdown of prodrugs under the assay conditions; assay type: in vitro ADME; details: under the various assay conditions; preliminary
# [8] = 48 hours of treatment, Example 6, read-out: IC50, MCF-7 cell growth (50% of surviving cells as compared to the control)
# [9] = MCF-7 cells, MTT, 24 hours, Example 7, hydrochloride, read-out: IC50/24 h
# [10] = 10 μM, 5 hours, and time course
smiles,measurement,setting,value
"CCCCCCCCCCCCCC(=O)N[C@H](C)[C@@H](O)c1ccccc1 [D-MAPP, D-erythro-2-(N-myristolyamino)-1-phenyl-1-propanol]",release of PGE2,L929 cells,inhibited
"CCCCCCCCCCCCCCN[C@H](CO)[C@H](O)c1ccc([N+](=O)[O-])cc1 [LCL204, (1R,2R)-2-N-(tetradecylamino)-1-(4′-nitrophenyl)-1,3-propandiol]",lysosomal stability as compared to the control (permanent destabilization),lysosomes [1],~90%
same,ACDase inhibition at the cellular level,acid ceramidase (ACDase) [2],about 35%
"O=C(CCCCCCCCCCCN1CCOCC1)N[C@H](CO)[C@H](O)c1ccc([N+](=O)[O-])cc1 [LCL449, (1R,2R)-2-[N-(12′-{1″-morpholine}-dodecanoyl)-amino]-1-(4″-nitrophenyl)-1,3-propandiol]",IC50,[3]; [8],49.9 µM
"CN(C)CCCCCCCCCCCC(=O)N[C@H](CO)[C@H](O)c1ccc([N+](=O)[O-])cc1 [LCL464, (1R,2R)-2-[N-(12′-N,N-dimethylamino-dodecanoyl)-amino]-1-(4″-nitrophenyl)-1,3-propandiol]","level of C18-Cer, % of control","[4]; 50 μM, at 24 hours",~900%
same,level of C16-Cer (percentage of control),"[4]; 50 μM, early effect",~240%
same,concentration at which elevation of C18-Cer was observed,"[4]; 24 hours, dose range 0-50 μM",above 20 μM
same,Caspase 3/7 activities (percentage of control),Caspase 3/7; 10 μM,140%
same,Caspase 3/7 activities (percentage of control),Caspase 3/7; 20 μM,200%
same,IC50,[3]; [8],10.2 µM
same,IC50,"[3]; 72 hr treatment, Example 6, read-out: IC50, MCF-7 cell growth",7.2 µM
same,lysosomal dysfunction (LYSOTRACKER Red fluorescence),"lysosomes [5]; 10 μM, 1 and 5 hours of treatment",did not cause lysosomal dysfunction
same,lysosomal stability,lysosomes [5]; 1 h,40%
same,lysosomal stability,lysosomes [5]; 5 h,61%
same,lysosomal stability,lysosomes [5]; 24 h,> 100%
same,ACDase inhibition at the cellular level,acid ceramidase (ACDase) [2],65%
same,inhibition of ACDase in vitro,"acid ceramidase (ACDase) [6]; 50 μM inhibitor, [3H]C16-Cer substrate",55%
"CCCCCCCCCCCCCC(=O)N[C@H](COC(=O)CN(C)C)[C@H](OC(=O)CN(C)C)c1ccc([N+](=O)[O-])cc1.Cl [LCL521, (1R,2R)-2-[N-tetradecanoyl)-amino]-1-(4″-nitrophenyl)-1,3-propandiol-1,3-O-bis-dimethylglycine hydrochloride]",IC50,[3]; [9],~8.9 µM and 8.9 µM
same,IC50,"[3]; MCF-7 cells, MTT, 48 hours, Example 7, read-out: IC50/48 h",8.67 µM
same,IC50,"[3]; MCF-7 cells, MTT, 72 hours, Example 7, read-out: IC50/72 h",7.45 µM
CCCCCCCCCCCCCC(=O)N[C@H](COC(=O)CN(C)C)[C@H](OC(=O)CN(C)C)c1ccc([N+](=O)[O-])cc1.Cl [LCL521],breakdown / metabolism of the prodrug,[7],slowly metabolized to the mono-ester LCL581 and B13
same,cellular level of Sph and S1P,[4]; [10],decreased
same,levels of pro-apoptotic C16- and C18-Cer and total ceramide,[4]; [10],increased
same,delivery to the lysosomes (LYSOTRACKER Red fluorescence),"lysosomes [5]; 5 μM or 10 μM, 1 hour",appears to be delivered to the lysosomes
same,effect on acid ceramidase activity in vitro,acid ceramidase (ACDase) [6]; concentration dependent (FIG. 13),inhibited acid ceramidase in vitro
"CCCCCCCCCCCCCC(=O)N[C@H](CO)[C@H](OC(=O)CN(C)C)c1ccc([N+](=O)[O-])cc1.Cl [LCL522, (1R,2R)-2-[N-tetradecanoyl)-amino]-1-(4″-nitrophenyl)-1,3-propandiol-1-O-dimethylglycine hydrochloride]",IC50,[3]; [9],~6.5 µM and 6.5 µM
CCCCCCCCCCCCCC(=O)N[C@H](CO)[C@H](OC(=O)CN(C)C)c1ccc([N+](=O)[O-])cc1.Cl [LCL522],breakdown / metabolism of the prodrug,[7],breaks down under the various assay conditions to form B13
same,regulation of cellular sphingolipids,"[4]; 10 μM, 5 hours",behaved similarly to B13
